From ChEMBL document CHEMBL2074541, “TP-search Transporter Database” (Hepatology, 1999)

Tests used:
Assay type in all cases: functional, cell-based
[1] = molecular target: T1, Solute carrier organic anion transporter family member 1A1 (Rattus norvegicus, UniProt P46720); test: (§1) TP_TRANSPORTER: uptake in Oatp1-expressing HeLa cells
T1 sequence (P46720 whole entry): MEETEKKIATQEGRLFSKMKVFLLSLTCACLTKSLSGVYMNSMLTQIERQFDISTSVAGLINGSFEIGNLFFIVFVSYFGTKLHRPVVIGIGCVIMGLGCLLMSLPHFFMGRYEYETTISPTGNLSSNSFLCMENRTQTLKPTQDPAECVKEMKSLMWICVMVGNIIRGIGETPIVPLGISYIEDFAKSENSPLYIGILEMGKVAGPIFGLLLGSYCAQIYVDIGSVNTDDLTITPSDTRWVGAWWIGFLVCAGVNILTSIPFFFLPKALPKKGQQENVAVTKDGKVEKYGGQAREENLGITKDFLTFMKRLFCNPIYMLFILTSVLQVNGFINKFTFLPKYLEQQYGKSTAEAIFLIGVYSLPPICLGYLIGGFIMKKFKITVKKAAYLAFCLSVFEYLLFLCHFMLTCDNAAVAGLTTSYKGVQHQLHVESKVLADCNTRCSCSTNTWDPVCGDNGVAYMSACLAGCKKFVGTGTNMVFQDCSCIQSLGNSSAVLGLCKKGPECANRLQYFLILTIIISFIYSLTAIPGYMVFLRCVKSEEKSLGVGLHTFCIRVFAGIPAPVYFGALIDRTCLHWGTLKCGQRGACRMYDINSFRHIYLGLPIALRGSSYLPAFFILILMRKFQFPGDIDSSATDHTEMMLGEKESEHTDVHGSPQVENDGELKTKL

[2] = substrate: C[C@H](CCC(=O)NCCS(=O)(=O)O)C1CC[C@H]2[C@@H]3C[C@H](O)[C@@H]4C[C@H](O)CC[C@]4(C)[C@H]3CC[C@]12C; test: as §1
[3] = substrate: C[C@H](CCC(=O)NCCS(=O)(=O)O)[C@H]1CC[C@H]2[C@@H]3[C@H](O)C[C@@H]4C[C@H](O)CC[C@]4(C)[C@H]3CC[C@]12C; test: as §1
[4] = substrate: O=C1OC(c2ccc(O)c(S(=O)(=O)O)c2)(c2ccc(O)c(S(=O)(=O)O)c2)c2c(Br)c(Br)c(Br)c(Br)c21; test: as §1

C[C@H](CCC(=O)O)[C@H]1CC[C@H]2[C@@H]3C[C@H](O)[C@@H]4C[C@H](O)CC[C@]4(C)[C@H]3CC[C@]12C [HYODEOXYCHOLIC_ACID]
Activity [1]: substrate [+]

C[C@H](CCC(=O)NCCS(=O)(=O)O)[C@H]1CC[C@H]2[C@@H]3CC[C@H]4C[C@H](O)CC[C@]4(C)[C@H]3C[C@@H](O)[C@]12C [TAUROLAGODEOXYCHOLATE]
Activity [1]: substrate [+]

C[C@H](CCC(=O)NCCS(=O)(=O)O)[C@H]1CC[C@H]2[C@@H]3C[C@@H](O)[C@@H]4C[C@H](O)CC[C@]4(C)[C@H]3CC[C@]12C [TAUROMUROCHOLATE]
Activity [1]: substrate [+]

B1: Solute carrier organic anion transporter family member 1A1 (Rattus norvegicus) (protein)
chain: MEETEKKIATQEGRLFSKMKVFLLSLTCACLTKSLSGVYMNSMLTQIERQFDISTSVAGLINGSFEIGNLFFIVFVSYFGTKLHRPVVIGIGCVIMGLGCLLMSLPHFFMGRYEYETTISPTGNLSSNSFLCMENRTQTLKPTQDPAECVKEMKSLMWICVMVGNIIRGIGETPIVPLGISYIEDFAKSENSPLYIGILEMGKVAGPIFGLLLGSYCAQIYVDIGSVNTDDLTITPSDTRWVGAWWIGFLVCAGVNILTSIPFFFLPKALPKKGQQENVAVTKDGKVEKYGGQAREENLGITKDFLTFMKRLFCNPIYMLFILTSVLQVNGFINKFTFLPKYLEQQYGKSTAEAIFLIGVYSLPPICLGYLIGGFIMKKFKITVKKAAYLAFCLSVFEYLLFLCHFMLTCDNAAVAGLTTSYKGVQHQLHVESKVLADCNTRCSCSTNTWDPVCGDNGVAYMSACLAGCKKFVGTGTNMVFQDCSCIQSLGNSSAVLGLCKKGPECANRLQYFLILTIIISFIYSLTAIPGYMVFLRCVKSEEKSLGVGLHTFCIRVFAGIPAPVYFGALIDRTCLHWGTLKCGQRGACRMYDINSFRHIYLGLPIALRGSSYLPAFFILILMRKFQFPGDIDSSATDHTEMMLGEKESEHTDVHGSPQVENDGELKTKL
Km [2]: 7.5 µM | Km [3]: 4.9 µM | Km [4]: 3.3 µM
